This note sets out measurements from patent US11649255B2, “Indazoles as hematopoietic progenitor kinase 1 (HPK1) inhibitors and methods using same” (1st Biotherapeutics, Inc., priority 2020, dated 2023).

Counter-ions that a name gives are not always drawn. Some results are limits rather than exact numbers.

In this assay the target is recombinant human HPK1 (Homo sapiens (Human), UniProt Q92918). The assay is described as follows: HPK1 kinase assay (ADP-Glo). It counts as biochemical. The note with it: 25 μM ATP, MBP substrate. In a few lines:
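Activity was read as ADP formed, detected by ADP-Glo luminescence after the reaction of 5 ng recombinant human HPK1 with MBP and ATP (stocks 0.5 μg/μl and 25 μM) for 40 min at 30 °C. Buffer was Tris pH 7.5 with MgCl2, BSA and DTT, with compound in 0.5% DMSO. IC50 came from inhibition curves.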

Sequence of recombinant human HPK1 (Q92918 whole entry): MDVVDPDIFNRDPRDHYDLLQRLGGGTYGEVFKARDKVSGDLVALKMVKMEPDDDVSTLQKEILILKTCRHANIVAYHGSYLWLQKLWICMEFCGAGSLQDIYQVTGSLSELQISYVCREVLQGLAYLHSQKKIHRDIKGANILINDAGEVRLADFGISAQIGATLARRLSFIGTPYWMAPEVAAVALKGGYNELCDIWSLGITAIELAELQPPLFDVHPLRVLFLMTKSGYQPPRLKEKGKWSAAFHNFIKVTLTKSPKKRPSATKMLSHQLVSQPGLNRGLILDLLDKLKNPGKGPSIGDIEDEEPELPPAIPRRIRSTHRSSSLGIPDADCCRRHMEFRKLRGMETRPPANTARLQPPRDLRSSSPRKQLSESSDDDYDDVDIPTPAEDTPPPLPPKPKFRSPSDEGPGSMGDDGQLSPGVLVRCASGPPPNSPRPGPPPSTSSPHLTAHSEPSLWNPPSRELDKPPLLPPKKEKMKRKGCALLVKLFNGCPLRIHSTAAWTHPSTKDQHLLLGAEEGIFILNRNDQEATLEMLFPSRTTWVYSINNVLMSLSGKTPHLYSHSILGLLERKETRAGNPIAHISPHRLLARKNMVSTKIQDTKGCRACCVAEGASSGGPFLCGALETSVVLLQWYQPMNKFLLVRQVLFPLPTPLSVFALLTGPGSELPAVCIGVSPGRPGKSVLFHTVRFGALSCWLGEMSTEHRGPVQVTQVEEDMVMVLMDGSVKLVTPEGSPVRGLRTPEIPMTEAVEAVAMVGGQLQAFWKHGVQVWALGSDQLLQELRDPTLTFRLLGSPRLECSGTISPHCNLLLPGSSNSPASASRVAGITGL

Take `CNC1CCC(Nc2c(F)c(Cl)c(-c3ccn4nc(NC(=O)[C@@H]5C[C@@H]5F)cc4c3)c3cn[nH]c23)CC1` (stereo partly drawn) [Example 508, (1S,2S)-N-(5-(5-chloro-6-fluoro-7-((4-(methylamino)cyclohexyl)amino)-1H-indazol-4-yl)pyrazolo[1,5-a]pyridin-2-yl)-2-fluorocyclopropane-1-carboxamide]: the IC50 is under 100 nM. With `Nc1c(F)c(Cl)c(-c2ccn3nc(NC(=O)[C@@H]4C[C@@H]4F)cc3c2)c2cn[nH]c12` [Example 510, (1S,2S)-N-(5-(7-amino-5-chloro-6-fluoro-1H-indazol-4-yl)pyrazolo[1,5-a]pyridin-2-yl)-2-fluorocyclopropane-1-carboxamide], the IC50 was under 100 nM. Under `CCOc1cc(C)c(-c2ccn3nc(NC(=O)[C@@H]4C[C@@H]4F)cc3c2)c2cn[nH]c12` [Example 511, (1S,2S)-N-(5-(7-ethoxy-5-methyl-1H-indazol-4-yl)pyrazolo[1,5-a]pyridin-2-yl)-2-fluorocyclopropane-1-carboxamide] stands under 100 nM. In the case of `CN(C)C1CCC(Nc2c(F)c(Cl)c(-c3ccn4nc(NC(=O)[C@@H]5C[C@@H]5F)cc4c3)c3cn[nH]c23)CC1` (stereo partly drawn) [Example 512, (1S,2S)-N-(5-(5-chloro-7-((4-(dimethylamino)cyclohexyl)amino)-6-fluoro-1H-indazol-4-yl)pyrazolo[1,5-a]pyridin-2-yl)-2-fluorocyclopropane-1-carboxamide] it was under 100 nM; in that of `CCc1c(F)c(SC)c2[nH]ncc2c1-c1ccn2nc(NC(=O)[C@@H]3C[C@@H]3F)cc2c1` [Example 513, (1S,2S)-N-(5-(5-ethyl-6-fluoro-7-(methylthio)-1H-indazol-4-yl)pyrazolo[1,5-a]pyridin-2-yl)-2-fluorocyclopropane-1-carboxamide dihydrochloride], under 100 nM; in that of `CN(c1c(F)c(Cl)c(-c2ccn3nc(NC(=O)[C@@H]4C[C@@H]4F)cc3c2)c2cn[nH]c12)C1CCC(N)CC1` (stereo partly shown) [Example 514], under 100 nM. `NC1CCC(Nc2c(F)c(Cl)c(-c3ccn4nc(NC(=O)[C@@H]5C[C@@H]5F)cc4c3)c3cn[nH]c23)CC1` (stereo partly drawn) [Example 515, (1S,2S)-N-(5-(7-((4-aminocyclohexyl)amino)-5-chloro-6-fluoro-1H-indazol-4-yl)pyrazolo[1,5-a]pyridin-2-yl)-2-fluorocyclopropane-1-carboxamide]: the IC50 is under 100 nM. On to `CC(C)(C)OC(=O)NC1CCC(Nc2c(F)c(Cl)c(-c3ccn4nc(NC(=O)[C@@H]5C[C@@H]5F)cc4c3)c3cn[nH]c23)CC1` (stereo partly drawn) [Example 516, tert-butyl (4-((5-chloro-6-fluoro-4-(2-((1S,2S)-2-fluorocyclopropane-1-carboxamido)pyrazolo[1,5-a]pyridin-5-yl)-1H-indazol-7-yl)amino)cyclohexyl)carbamate], for which the half-inhibitory concentration (IC50) is under 100 nM. In the case of `O=C(Nc1cc2cc(-c3c(Cl)c(F)c(NC4CCC(O)CC4)c4[nH]ncc34)ccn2n1)[C@@H]1C[C@@H]1F` (stereo partly drawn) [Example 517, (1S,2S)-N-(5-(5-chloro-6-fluoro-7-((4-hydroxycyclohexyl)amino)-1H-indazol-4-yl)pyrazolo[1,5-a]pyridin-2-yl)-2-fluorocyclopropane-1-carboxamide], the IC50 is under 100 nM. In the case of `CCc1c(F)c(N(CC)CC)c2[nH]ncc2c1-c1ccn2nc(NC(=O)[C@@H]3C[C@@H]3F)cc2c1` [Example 518, (1S,2S)-N-(5-(7-(diethylamino)-5-ethyl-6-fluoro-1H-indazol-4-yl)pyrazolo[1,5-a]pyridin-2-yl)-2-fluorocyclopropane-1-carboxamide] it was under 100 nM.

As to `CCc1c(F)c(N(C)C)c2[nH]ncc2c1-c1ccn2nc(NC(=O)[C@@H]3C[C@@H]3F)cc2c1` [Example 519, (1S,2S)-N-(5-(7-(dimethylamino)-5-ethyl-6-fluoro-1H-indazol-4-yl)pyrazolo[1,5-a]pyridin-2-yl)-2-fluorocyclopropane-1-carboxamide], the IC50 was under 100 nM. Under `CCc1c(F)c(SCC(=O)N(C)C)c2[nH]ncc2c1-c1ccn2nc(NC(=O)[C@@H]3C[C@@H]3F)cc2c1` [Example 522] stands under 100 nM; under `CCc1c(F)c(SCC(=O)O)c2[nH]ncc2c1-c1ccn2nc(NC(=O)[C@@H]3C[C@@H]3F)cc2c1` [Example 526, 2-((5-ethyl-6-fluoro-4-(2-((1S,2S)-2-fluorocyclopropane-1-carboxamido)pyrazolo[1,5-a]pyridin-5-yl)-1H-indazol-7-yl)thio)acetic acid], under 100 nM; under `CN(c1c(F)c(Cl)c(-c2ccn3nc(NC(=O)[C@@H]4C[C@@H]4F)cc3c2)c2cn[nH]c12)C1CCC(N)C1` (stereo partly drawn) [Example 527, (1S,2S)-N-(5-(7-((3-aminocyclopentyl)(methyl)amino)-5-chloro-6-fluoro-1H-indazol-4-yl)pyrazolo[1,5-a]pyridin-2-yl)-2-fluorocyclopropane-1-carboxamide], under 100 nM.

With `O=C(Nc1cc2cc(-c3c(Cl)c(F)c(O)c4[nH]ncc34)ccn2n1)[C@@H]1C[C@@H]1F` [Example 528, (1S,2S)-N-(5-(5-chloro-6-fluoro-7-hydroxy-1H-indazol-4-yl)pyrazolo[1,5-a]pyridin-2-yl)-2-fluorocyclopropane-1-carboxamide], the IC50 was under 100 nM. In the case of `Cc1c(F)c(OCCOC(N)=O)c2[nH]ncc2c1-c1ccn2nc(NC(=O)[C@@H]3C[C@@H]3F)cc2c1` [Example 535, 2-((6-fluoro-4-(2-((1S,2S)-2-fluorocyclopropane-1-carboxamido)pyrazolo[1,5-a]pyridin-5-yl)-5-methyl-1H-indazol-7-yl)oxy)ethyl carbamate] it was under 100 nM; in that of `O=C(Nc1cc2cc(-c3c(Cl)c(F)c(F)c4[nH]ncc34)ccn2n1)[C@@H]1C[C@@H]1F` [Example 536, (1S,2S)-N-(5-(5-chloro-6,7-difluoro-1H-indazol-4-yl)pyrazolo[1,5-a]pyridin-2-yl)-2-fluorocyclopropane-1-carboxamide], under 100 nM; in that of `CC(=O)Nc1c(F)c(Cl)c(-c2ccn3nc(NC(=O)[C@@H]4C[C@@H]4F)cc3c2)c2cn[nH]c12` [Example 537, (1S,2S)-N-(5-(7-acetamido-5-chloro-6-fluoro-1H-indazol-4-yl)pyrazolo[1,5-a]pyridin-2-yl)-2-fluorocyclopropane-1-carboxamide], under 100 nM. Under `C[S+]([O-])c1c(F)c(Cl)c(-c2ccn3nc(NC(=O)[C@@H]4C[C@@H]4F)cc3c2)c2cn[nH]c12` (stereo partly drawn) [Example 538, (1S,2S)-N-(5-(5-chloro-6-fluoro-7-(methylsulfinyl)-1H-indazol-4-yl)pyrazolo[1,5-a]pyridin-2-yl)-2-fluorocyclopropane-1-carboxamide] stands under 100 nM. Regarding `Cc1c(F)c(OCCN(C)C(N)=O)c2[nH]ncc2c1-c1ccn2nc(NC(=O)[C@@H]3C[C@@H]3F)cc2c1` [Example 539, (1S,2S)-2-fluoro-N-(5-(6-fluoro-5-methyl-7-(2-(1-methylureido)ethoxy)-1H-indazol-4-yl)pyrazolo[1,5-a]pyridin-2-yl)cyclopropane-1-carboxamide], the half-inhibitory concentration (IC50) is under 100 nM. Take `CN(Nc1c(F)c(Cl)c(-c2ccn3nc(NC(=O)[C@@H]4C[C@@H]4F)cc3c2)c2cn[nH]c12)C(=O)OC(C)(C)C` [Example 542, tert-butyl 2-(5-chloro-6-fluoro-4-(2-((1S,2S)-2-fluorocyclopropane-1-carboxamido)pyrazolo[1,5-a]pyridin-5-yl)-1H-indazol-7-yl)-1-methylhydrazine-1-carboxylate]: the IC50 is under 100 nM. For the compound `Cc1c(F)c(OCCNC(N)=O)c2[nH]ncc2c1-c1ccn2nc(NC(=O)[C@@H]3C[C@@H]3F)cc2c1` [Example 544, (1S,2S)-2-fluoro-N-(5-(6-fluoro-5-methyl-7-(2-ureidoethoxy)-1H-indazol-4-yl)pyrazolo[1,5-a]pyridin-2-yl)cyclopropane-1-carboxamide], the IC50 is under 100 nM. Regarding `CNC(=O)NCCOc1c(F)c(C)c(-c2ccn3nc(NC(=O)[C@@H]4C[C@@H]4F)cc3c2)c2cn[nH]c12` [Example 545, (1S,2S)-2-fluoro-N-(5-(6-fluoro-5-methyl-7-(2-(3-methylureido)ethoxy)-1H-indazol-4-yl)pyrazolo[1,5-a]pyridin-2-yl)cyclopropane-1-carboxamide], the IC50 was under 100 nM. In the case of `CNC(=O)OCCSc1c(F)c(C)c(-c2ccn3nc(NC(=O)[C@@H]4C[C@@H]4F)cc3c2)c2cn[nH]c12` [Example 546, 2-((6-fluoro-4-(2-((1S,2S)-2-fluorocyclopropane-1-carboxamido)pyrazolo[1,5-a]pyridin-5-yl)-5-methyl-1H-indazol-7-yl)thio)ethyl methylcarbamate], the concentration for half-maximal inhibition (IC50) is under 100 nM. In the case of `Cc1c(F)c(OCCNC(=O)C(F)(F)F)c2[nH]ncc2c1-c1ccn2nc(NC(=O)[C@@H]3C[C@@H]3F)cc2c1` [Example 547, (1S,2S)-2-fluoro-N-(5-(6-fluoro-5-methyl-7-(2-(2,2,2-trifluoroacetamido)ethoxy)-1H-indazol-4-yl)pyrazolo[1,5-a]pyridin-2-yl)cyclopropane-1-carboxamide] it was under 100 nM. Turning to `COC(=O)c1c(F)c(C)c(-c2ccn3nc(NC(=O)[C@@H]4C[C@@H]4F)cc3c2)c2cn[nH]c12` [Example 548, methyl 6-fluoro-4-(2-((1S,2S)-2-fluorocyclopropane-1-carboxamido)pyrazolo[1,5-a]pyridin-5-yl)-5-methyl-1H-indazole-7-carboxylate], the IC50 was under 100 nM. Consider `Cc1c(F)c(C(=O)O)c2[nH]ncc2c1-c1ccn2nc(NC(=O)[C@@H]3C[C@@H]3F)cc2c1` [Example 549, 6-fluoro-4-(2-((1S,2S)-2-fluorocyclopropane-1-carboxamido)pyrazolo[1,5-a]pyridin-5-yl)-5-methyl-1H-indazole-7-carboxylic acid], for which the IC50 was over 1000 nM.

As to `O=C(O)c1c(F)c(Cl)c(-c2ccn3nc(NC(=O)[C@@H]4C[C@@H]4F)cc3c2)c2cn[nH]c12` [Example 551, 5-chloro-6-fluoro-4-(2-((1S,2S)-2-fluorocyclopropane-1-carboxamido)pyrazolo[1,5-a]pyridin-5-yl)-1H-indazole-7-carboxylic acid], the half-inhibitory concentration (IC50) is over 1000 nM.
